Where a name gives a salt, the structure may show the parent alone.
Columns and labels:
Dopamine D2 receptor = Dopamine D2 receptor (Rattus norvegicus, UniProt P61169); assay: Dopamine D2 receptor binding test ([3H] raclopride); settings: rat striate body membrane; [3H] raclopride 1 nM; 1 hour at 25° C.
human D4.2 receptor = biological target: T1, human D4.2 receptor (Homo sapiens, UniProt P21917, DEL265-296); assay: Dopamine D4 receptor binding test ([3H] spiperone); settings: human D4.2 receptor in CHO cell membrane; [3H] spiperone 0.5 nM; 2 hours at 27° C., pH 7.4
T1 construct: expressed in transfected cells; host or cells: Chinese hamster ovary (CHO) cells, membranes
T1 sequence (P21917 with tags, fused parts or gaps DEL265-296): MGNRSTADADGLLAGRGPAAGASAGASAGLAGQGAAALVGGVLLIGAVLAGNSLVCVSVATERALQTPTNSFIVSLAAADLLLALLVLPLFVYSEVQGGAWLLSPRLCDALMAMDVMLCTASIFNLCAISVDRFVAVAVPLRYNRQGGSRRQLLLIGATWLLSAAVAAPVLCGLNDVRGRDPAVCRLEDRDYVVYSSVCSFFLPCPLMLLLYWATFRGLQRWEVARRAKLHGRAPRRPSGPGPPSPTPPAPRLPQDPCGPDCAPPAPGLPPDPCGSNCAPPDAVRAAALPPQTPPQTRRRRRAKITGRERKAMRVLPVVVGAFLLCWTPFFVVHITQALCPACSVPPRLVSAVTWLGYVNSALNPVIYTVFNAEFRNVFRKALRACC
Protocol: 1. Dopamine D4 receptor binding test
Chinese hamster ovary (CHO) cell membrane, in which human D4.2 receptor was expressed, was used as a receptor sample.
[^3 H] Spiperone was used as a [^3 H]-labeled ligand.
The binding reaction using the [^3 H]-labeled ligand was carried out by the following method described in Eur. J. Pharmacol., 233, 173 (1993).
Human D4.2 receptor binding test: The CHO cell membrane, in which human D4.2 receptor has been expressed, [^3 H] spiperone (0.5 nM) and each test compound were allowed to undergo 2 hours of reaction at 27° C. in 50 mM Tris-HCl buffer (pH 7.4) containing 5 mM EDTA, 1.5 mM CaCl2, 5 mM KCl and 120 mM NaCl.
After completion of the reaction, the reaction solution was filtered by suction through a glass filter (GF/B), and radioactivity on the filter paper was measured using a liquid scintillation spectrometer.
The binding when the reaction was carried out in the presence of 10 μM haloperidol was defined as non-specific binding of [^3 H] spiperone, and the difference between total binding and non-specific binding was defined as specific binding. An inhibition curve was obtained by allowing a fixed concentration of [^3 H] spiperone to react with varied concentration of each compound to be tested under the aforementioned conditions, and the concentration of each test compound which inhibits 50% of the [^3 H] spiperone binding (IC50) was calculated from the inhibition curve, with the results shown in Table 3.

[1] = literature; cited from earlier work
dopamine D4 receptor = settings: literature; cited from earlier work
schizophrenia = settings: clinical, literature, cited from earlier work

Dopamine D2 receptor, sequence (P61169 whole entry): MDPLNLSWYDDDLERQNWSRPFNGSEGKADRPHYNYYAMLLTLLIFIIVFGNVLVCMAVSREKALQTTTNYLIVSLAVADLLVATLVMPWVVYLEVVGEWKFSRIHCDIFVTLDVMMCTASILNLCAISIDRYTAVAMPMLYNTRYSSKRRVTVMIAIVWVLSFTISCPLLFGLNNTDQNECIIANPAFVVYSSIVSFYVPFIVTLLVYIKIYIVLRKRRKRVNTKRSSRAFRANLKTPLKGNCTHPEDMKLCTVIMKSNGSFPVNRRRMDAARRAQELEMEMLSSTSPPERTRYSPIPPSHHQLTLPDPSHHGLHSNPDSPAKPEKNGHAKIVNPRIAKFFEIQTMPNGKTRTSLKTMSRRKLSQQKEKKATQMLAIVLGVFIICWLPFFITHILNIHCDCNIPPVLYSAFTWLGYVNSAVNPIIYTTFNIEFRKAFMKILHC

Row | Structure (SMILES) | IC50 (Dopamine D2 receptor) | IC50 (human D4.2 receptor) | hemotoxicity [1] | affinity for dopamine D4 receptor relative to dopamine D2 receptor (dopamine D4 receptor) | efficacy in schizophrenia (schizophrenia) | extrapyramidal disorders (schizophrenia; unlike dopamine D2 receptor antagonists)
1 | Cc1ccc(-c2nc(C(N)=O)sc2CCN2CCC(=Cc3ccc(F)cc3)CC2)cc1 [Compound A-20] | 187 nM | 9.55 nM |  |  |  | 
2 | NC(=O)c1nc(-c2ccccc2)c(CCN2CCC(=Cc3ccc(F)cc3)CC2)s1 [Compound A-17] | 628 nM | 5.99 nM |  |  |  | 
3 | NC(=O)c1nc(-c2ccc(F)cc2)c(CCN2CCC(=Cc3cccc(F)c3)CC2)s1 [Compound A-10, 2-carbamoyl-4-(4-fluorophenyl)-5-[2-[4-(3-fluorobenzylidene)piperidin-1-yl]ethyl]thiazole] | 559 nM | 4.53 nM |  |  |  | 
4 | Cc1ccc(C=C2CCN(CCc3sc(C(N)=O)nc3-c3ccc(F)cc3)CC2)cc1 [Compound A-15] | 433 nM | 18.3 nM |  |  |  | 
5 | CN1CCN(C2=Nc3cc(Cl)ccc3Nc3ccccc32)CC1 [Clozapine] |  |  | generates a hemotoxin as agranulocytosis which resulted in certain mortal cases | higher than its affinity for dopamine D2 receptor | effective in drug-resistant schizophrenia and negative symptoms | causes less extrapyramidal disorders
6 | NC(=O)c1nc(-c2ccc(F)cc2)c(CCN2CCC(=Cc3ccc(F)cc3)CC2)s1 [Compound A-02] | ≥ 1000 nM | 5.46 nM |  |  |  | 
7 | NC(=O)c1nc(-c2ccc(F)cc2)c(CCN2CCC(C(=O)c3ccc(F)cc3)CC2)s1 [Compound A-22] | 72.2 nM | 3.13 nM |  |  |  | 
8 | NC(=O)c1nc(-c2ccc(F)cc2)c(CCN2CCC(=Cc3ccccc3)CC2)s1 [Compound A-13] | 143 nM | 3.13 nM |  |  |  | 
9 | CCOC(=O)c1nc(-c2ccc(F)cc2)c(CCN2CCC(=Cc3cccc(F)c3)CC2)s1 [Compound A-09, 2-ethoxycarbonyl-4-(4-fluorophenyl)-5-[2-[4-(3-fluorobenzylidene)piperidin-1-yl]ethyl]thiazole hydrochloride] | > 1000 nM | 13.9 nM |  |  |  | 
10 | O=C(O)c1nc(-c2ccc(F)cc2)c(CCN2CCC(=Cc3cccc(F)c3)CC2)s1 [Compound A-11, 2-carboxylic acid-4-(4-fluorophenyl)-5-[2-[4-(3-fluorobenzylidene)piperidin-1-yl]ethyl]thiazole potassium salt] | ≥ 1000 nM | 10.5 nM |  |  |  | 
11 | CCOC(=O)c1nc(-c2ccc(F)cc2)c(CCN2CCC(C(=O)c3ccc(F)cc3)CC2)s1 [Compound A-21] | > 1000 nM | 3.43 nM |  |  |  | 

Reference: US6166033A, “2-carbonylthiazole derivatives and use of the same” (priority 1996, dated 2000)
